Values of other authors, collected in patent US6996473B2, “Method for screening and producing compound libraries” (Lion Bioscience AG, priority 1998, dated 2006).
Structures can show the parent of a compound that is named as a salt. Where two headings read alike, the source gives them in different places.

Tests used:
rabbit intestinal tissue = conditions: intestinal transport mechanism represented by the standard
[1] = Stomach

| Transport mechanism (rabbit intestinal tissue) | Solubility [1] [mg/mL] | Cmax (Clinical 1505a) [µg/mL] | Tmax (Clinical 1505a) [h] | Cmax (Clinical 1505b) [µg/mL] | Tmax (Clinical 1505b) [h] | bioavailability of fasted patients in clinical trials (fasted patients, oral) | SMILES |
| --- | --- | --- | --- | --- | --- | --- | --- |
| Carrier-mediated Influx | – | – | – | – | – | – | O=C[C@H](O)[C@@H](O)[C@H](O)[C@H](O)CO [D-glucose] |
| – | 31 | 0.55 | 1.43 | 0.59 | 1.43 | 3-20% | Nc1nc(O)c2ncn(COC(CO)CO)c2n1 [Gancyclovir, 9-(1,3-dihydroxy-2-propoxymethyl) guanine, monosodium salt] |
| Passive Paracellular | – | – | – | – | – | – | OC[C@@H](O)[C@@H](O)[C@H](O)[C@H](O)CO [mannitol] |
